Target: TNFα trimer (Homo sapiens, UniProt P01375)
Assay: TNFα FP Competitive Binding Assay
Conditions: FP binding assay; 20 nM TNFα trimer, 1 nM OregonGreen488 probe; read-out: TNF IC50
How it was run: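 Compounds in 12-point 1:3 series, final top 100 μM (2.0% DMSO) or 338 μM (3.4% DMSO), displace 1 nM fluorescent probe from 20 nM TNFα trimer. After 18-24 h incubation plus 1 h rt equilibration, background-subtracted polarization measured and curves fitted with variable slope.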

TNFα trimer, sequence (P01375 77-233 limits assumed): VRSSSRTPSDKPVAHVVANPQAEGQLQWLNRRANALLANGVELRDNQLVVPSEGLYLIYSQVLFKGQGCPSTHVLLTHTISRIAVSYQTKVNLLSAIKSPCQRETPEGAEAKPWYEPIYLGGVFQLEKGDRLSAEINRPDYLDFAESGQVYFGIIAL

Row | IC50 | Structure (SMILES)
1 | 1 to 10 µM | CC(=O)N1CCN(c2ncc(-c3ccc4c(=O)n(Cc5cccc(C#N)c5)n(Cc5ccccc5Cl)c4c3)cn2)C[C@H]1C [Example #134*, (R)-3-((6-(2-(4-Acetyl-3-methylpiperazin-1-yl)pyrimidin-5-yl)-1-(2-chlorobenzyl)-3-oxo-1H-indazol-2(3H)-yl)methyl)benzonitrile]
2 | < 1 µM | Cc1ccc(OC(F)F)c(Cn2c3cc(-c4cnn5c(C(C)(C)O)cnc5c4)ccc3c(=O)n2C)c1 [Example #135, 1-(2-(Difluoromethoxy)-5-methylbenzyl)-6-(3-(2-hydroxypropan-2-yl)imidazo[1,2-b]pyridazin-7-yl)-2-methyl-1H-indazol-3(2H)-one]

Source: patent publication US10160748B2 (AbbVie Inc., priority 2015, dated 2018)
